According to PMC5791972 (PLoS ONE, 2018):
Where two headings read alike, the source gives them in different places.

Key:
[1] = molecular target: T1, α2C (h) (Homo sapiens, UniProt P18825); type: binding; conditions: 1 h
T1 construct: host or cells: CHO cells
T1 sequence (P18825 1-462): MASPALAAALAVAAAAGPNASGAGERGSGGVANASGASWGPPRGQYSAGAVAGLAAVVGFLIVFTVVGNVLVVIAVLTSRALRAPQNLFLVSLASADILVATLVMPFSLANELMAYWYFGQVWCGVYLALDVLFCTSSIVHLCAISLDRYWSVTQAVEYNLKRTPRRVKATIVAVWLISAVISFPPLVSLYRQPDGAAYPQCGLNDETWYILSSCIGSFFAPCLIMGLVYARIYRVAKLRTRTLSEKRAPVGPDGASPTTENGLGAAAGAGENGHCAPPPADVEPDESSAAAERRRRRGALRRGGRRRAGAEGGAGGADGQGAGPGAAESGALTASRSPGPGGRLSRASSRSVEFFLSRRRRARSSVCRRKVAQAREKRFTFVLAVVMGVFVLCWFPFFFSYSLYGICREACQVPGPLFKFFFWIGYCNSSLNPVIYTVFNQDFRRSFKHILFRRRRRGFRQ

[2] = molecular target: T2, human TRPC4 (hTRPC4) (Homo sapiens, UniProt Q9UBN4); assay: Fluorometric calcium influx assay; type: cell-based; conditions: 1 pM to 1 μM, n = 8
T2 construct: The cDNAs for various full-length ion channels were subcloned into pcDNA5/TO; expressed in transfected cells; M1R co-expressed in the calcium assay, M2R in patch clamp

[3] = molecular target: T3, α2A (h) (Homo sapiens, UniProt P08913); type: binding; conditions: 1.0E-06 M
T3 construct: host or cells: CHO cells
T3 sequence (P08913 1-465): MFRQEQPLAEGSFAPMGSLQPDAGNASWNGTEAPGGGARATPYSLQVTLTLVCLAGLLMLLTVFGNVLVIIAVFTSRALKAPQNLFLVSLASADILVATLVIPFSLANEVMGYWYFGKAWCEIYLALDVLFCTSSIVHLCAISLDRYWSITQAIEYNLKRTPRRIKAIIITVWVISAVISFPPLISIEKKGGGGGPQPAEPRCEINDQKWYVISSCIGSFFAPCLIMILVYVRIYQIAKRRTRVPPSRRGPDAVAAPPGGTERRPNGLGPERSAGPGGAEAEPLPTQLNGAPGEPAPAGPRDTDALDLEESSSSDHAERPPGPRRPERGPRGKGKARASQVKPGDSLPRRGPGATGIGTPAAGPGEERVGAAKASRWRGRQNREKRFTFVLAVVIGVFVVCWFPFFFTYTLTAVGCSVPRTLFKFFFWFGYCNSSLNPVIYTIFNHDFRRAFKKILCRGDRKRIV

[4] = molecular target: T4, CB2 (h) (Homo sapiens, UniProt P34972); type: binding; conditions: 1.0E-06 M
T4 construct: host or cells: CHO cells
T4 sequence (P34972 whole entry): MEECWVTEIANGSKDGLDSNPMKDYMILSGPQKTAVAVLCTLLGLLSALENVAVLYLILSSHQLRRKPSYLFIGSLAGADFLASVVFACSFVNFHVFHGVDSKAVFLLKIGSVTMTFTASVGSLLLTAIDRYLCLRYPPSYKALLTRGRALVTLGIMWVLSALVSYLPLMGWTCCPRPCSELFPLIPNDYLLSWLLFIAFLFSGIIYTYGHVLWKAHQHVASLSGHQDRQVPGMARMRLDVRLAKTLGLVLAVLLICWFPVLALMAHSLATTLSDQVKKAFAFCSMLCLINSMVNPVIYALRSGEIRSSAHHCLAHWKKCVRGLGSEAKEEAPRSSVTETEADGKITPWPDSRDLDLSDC

[5] = molecular target: T5, ETB (h) (Homo sapiens, UniProt P24530); type: binding
T5 construct: host or cells: CHO cells
T5 sequence (P24530 27-442): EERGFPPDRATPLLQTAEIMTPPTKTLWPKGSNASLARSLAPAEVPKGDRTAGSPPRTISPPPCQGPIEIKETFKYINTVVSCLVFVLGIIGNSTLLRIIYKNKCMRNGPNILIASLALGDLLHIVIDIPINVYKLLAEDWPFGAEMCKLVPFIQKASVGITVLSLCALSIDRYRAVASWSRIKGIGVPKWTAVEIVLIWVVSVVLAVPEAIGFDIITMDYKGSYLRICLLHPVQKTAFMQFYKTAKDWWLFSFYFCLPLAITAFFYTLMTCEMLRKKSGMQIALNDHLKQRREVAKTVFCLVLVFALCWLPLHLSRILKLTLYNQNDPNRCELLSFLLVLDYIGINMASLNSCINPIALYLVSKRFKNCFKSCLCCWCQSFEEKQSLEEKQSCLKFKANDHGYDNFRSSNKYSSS

[6] = molecular target: glycine (strychnine-insensitive) (Rattus norvegicus, UniProt P35439); type: binding
[7] = molecular target: T6, H3 (h) (Homo sapiens, UniProt Q9Y5N1); type: binding
T6 construct: host or cells: CHO cells
T6 sequence (Q9Y5N1 whole entry): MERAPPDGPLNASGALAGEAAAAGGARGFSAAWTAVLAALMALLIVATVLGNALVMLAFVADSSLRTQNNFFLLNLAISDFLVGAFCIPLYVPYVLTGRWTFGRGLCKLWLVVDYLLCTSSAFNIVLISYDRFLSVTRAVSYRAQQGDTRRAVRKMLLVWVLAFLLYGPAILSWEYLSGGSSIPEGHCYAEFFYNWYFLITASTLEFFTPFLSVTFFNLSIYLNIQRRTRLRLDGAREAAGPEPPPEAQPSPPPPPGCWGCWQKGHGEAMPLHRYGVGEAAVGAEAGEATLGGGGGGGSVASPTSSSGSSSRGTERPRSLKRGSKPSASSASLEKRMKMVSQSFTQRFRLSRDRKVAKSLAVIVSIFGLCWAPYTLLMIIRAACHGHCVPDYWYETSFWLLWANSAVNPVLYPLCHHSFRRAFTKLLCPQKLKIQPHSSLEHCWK

[8] = molecular target: T7, motilin (h) (Homo sapiens, UniProt O43193); type: binding
T7 construct: host or cells: CHO cells
T7 sequence (O43193 whole entry): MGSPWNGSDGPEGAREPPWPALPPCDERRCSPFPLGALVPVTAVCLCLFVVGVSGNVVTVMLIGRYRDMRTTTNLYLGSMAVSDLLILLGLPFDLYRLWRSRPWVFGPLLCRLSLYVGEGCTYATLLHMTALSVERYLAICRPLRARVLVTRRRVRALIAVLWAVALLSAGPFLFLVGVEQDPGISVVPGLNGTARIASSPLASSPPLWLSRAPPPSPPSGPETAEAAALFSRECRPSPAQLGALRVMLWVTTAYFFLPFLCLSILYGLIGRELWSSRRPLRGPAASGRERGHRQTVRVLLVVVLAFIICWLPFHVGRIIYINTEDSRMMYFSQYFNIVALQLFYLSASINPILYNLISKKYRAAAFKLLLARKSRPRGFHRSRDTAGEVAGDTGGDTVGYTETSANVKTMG

[9] = molecular target: T8, V1a (h) (Homo sapiens, UniProt P37288); type: binding; conditions: 1.0E-06 M
T8 construct: host or cells: CHO cells
T8 sequence (P37288 whole entry): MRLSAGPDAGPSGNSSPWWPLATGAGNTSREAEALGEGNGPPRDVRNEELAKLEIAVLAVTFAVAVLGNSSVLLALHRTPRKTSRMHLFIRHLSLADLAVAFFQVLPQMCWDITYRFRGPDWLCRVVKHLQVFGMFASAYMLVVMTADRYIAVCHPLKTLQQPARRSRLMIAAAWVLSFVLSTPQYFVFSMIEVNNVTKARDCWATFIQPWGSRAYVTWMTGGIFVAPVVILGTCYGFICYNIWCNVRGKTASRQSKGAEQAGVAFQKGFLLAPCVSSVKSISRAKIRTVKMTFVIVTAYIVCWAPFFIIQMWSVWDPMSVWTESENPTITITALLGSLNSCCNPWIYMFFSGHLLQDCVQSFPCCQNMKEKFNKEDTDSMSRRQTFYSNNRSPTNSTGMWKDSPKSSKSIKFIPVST

[10] = test system: Ca2+ channel (L, verapamil site) (phenylalkylamine); type: binding, rat; conditions: 1.0E-06 M
[11] = molecular target: T9, ACE (h) (Homo sapiens, UniProt P12821); assay: enzyme assay; type: biochemical; conditions: 1.0E-06 M
T9 construct: Cerep (contract assay)
T9 sequence (P12821 30-1306): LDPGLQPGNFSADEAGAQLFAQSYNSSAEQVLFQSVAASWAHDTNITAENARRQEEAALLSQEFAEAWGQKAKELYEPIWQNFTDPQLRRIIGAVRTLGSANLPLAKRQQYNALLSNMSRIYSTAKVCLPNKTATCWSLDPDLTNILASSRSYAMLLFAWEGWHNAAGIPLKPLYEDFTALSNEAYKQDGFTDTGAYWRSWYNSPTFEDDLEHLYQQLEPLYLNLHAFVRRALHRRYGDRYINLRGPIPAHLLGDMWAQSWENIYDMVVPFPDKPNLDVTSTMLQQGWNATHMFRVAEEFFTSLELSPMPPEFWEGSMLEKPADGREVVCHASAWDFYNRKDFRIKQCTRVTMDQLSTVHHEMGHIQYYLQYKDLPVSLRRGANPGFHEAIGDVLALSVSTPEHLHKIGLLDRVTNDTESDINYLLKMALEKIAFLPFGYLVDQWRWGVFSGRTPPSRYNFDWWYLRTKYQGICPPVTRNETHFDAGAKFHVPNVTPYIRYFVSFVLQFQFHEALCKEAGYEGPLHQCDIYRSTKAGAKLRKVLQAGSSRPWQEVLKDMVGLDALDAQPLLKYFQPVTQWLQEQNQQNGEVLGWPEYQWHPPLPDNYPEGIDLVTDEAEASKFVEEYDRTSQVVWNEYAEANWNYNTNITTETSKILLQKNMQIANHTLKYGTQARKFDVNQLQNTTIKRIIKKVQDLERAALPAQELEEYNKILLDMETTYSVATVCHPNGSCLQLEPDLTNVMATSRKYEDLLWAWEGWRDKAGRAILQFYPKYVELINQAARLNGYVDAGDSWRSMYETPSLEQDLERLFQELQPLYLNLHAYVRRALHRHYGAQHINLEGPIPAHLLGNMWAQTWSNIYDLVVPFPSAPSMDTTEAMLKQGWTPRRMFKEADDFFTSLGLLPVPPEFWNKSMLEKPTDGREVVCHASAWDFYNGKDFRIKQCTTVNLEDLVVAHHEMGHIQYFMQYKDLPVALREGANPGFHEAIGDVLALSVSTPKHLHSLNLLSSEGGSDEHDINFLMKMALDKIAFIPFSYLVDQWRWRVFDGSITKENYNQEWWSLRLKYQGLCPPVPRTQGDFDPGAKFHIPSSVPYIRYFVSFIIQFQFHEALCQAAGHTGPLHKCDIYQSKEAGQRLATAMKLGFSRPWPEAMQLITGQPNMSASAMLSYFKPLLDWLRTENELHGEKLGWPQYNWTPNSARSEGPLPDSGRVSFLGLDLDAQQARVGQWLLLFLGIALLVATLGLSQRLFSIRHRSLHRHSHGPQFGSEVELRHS

[12] = molecular target: GABA transporter (Rattus norvegicus, UniProt P23978)
[13] = molecular target: GABAB(1b) (h) (Homo sapiens, UniProt Q9UBS5); assay: biochemical
[14] = molecular target: κ (KOP) (Rattus norvegicus, UniProt P34975); assay: biochemical
Chain of κ (KOP) (P34975 whole entry): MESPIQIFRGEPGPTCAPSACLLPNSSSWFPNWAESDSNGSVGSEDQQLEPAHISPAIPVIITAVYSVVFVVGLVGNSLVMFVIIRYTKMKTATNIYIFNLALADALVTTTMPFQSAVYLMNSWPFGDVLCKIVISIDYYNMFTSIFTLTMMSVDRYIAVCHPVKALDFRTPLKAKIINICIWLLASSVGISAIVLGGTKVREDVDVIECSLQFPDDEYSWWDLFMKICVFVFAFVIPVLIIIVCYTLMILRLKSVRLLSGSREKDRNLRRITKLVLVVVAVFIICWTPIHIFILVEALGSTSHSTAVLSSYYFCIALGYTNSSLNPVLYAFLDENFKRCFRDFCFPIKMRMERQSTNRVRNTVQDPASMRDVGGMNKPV

[15] = molecular target: μ (MOP) (h) (Homo sapiens, UniProt P35372); assay: biochemical
Chain of μ (MOP) (h) (P35372 whole entry): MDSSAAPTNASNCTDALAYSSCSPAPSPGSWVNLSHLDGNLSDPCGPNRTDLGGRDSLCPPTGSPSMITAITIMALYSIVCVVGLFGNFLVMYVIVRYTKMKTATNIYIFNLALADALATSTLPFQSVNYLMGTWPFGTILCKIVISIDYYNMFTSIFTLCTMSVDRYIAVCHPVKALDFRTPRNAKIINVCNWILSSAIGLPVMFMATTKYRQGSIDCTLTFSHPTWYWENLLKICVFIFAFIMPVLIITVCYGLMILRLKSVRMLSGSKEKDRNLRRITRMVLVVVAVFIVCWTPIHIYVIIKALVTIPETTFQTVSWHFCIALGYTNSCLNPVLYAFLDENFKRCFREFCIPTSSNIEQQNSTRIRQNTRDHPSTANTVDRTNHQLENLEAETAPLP

[16] = molecular target: 5-HT6 (h) (Homo sapiens, UniProt P50406); assay: biochemical
Chain of 5-HT6 (h) (P50406 whole entry): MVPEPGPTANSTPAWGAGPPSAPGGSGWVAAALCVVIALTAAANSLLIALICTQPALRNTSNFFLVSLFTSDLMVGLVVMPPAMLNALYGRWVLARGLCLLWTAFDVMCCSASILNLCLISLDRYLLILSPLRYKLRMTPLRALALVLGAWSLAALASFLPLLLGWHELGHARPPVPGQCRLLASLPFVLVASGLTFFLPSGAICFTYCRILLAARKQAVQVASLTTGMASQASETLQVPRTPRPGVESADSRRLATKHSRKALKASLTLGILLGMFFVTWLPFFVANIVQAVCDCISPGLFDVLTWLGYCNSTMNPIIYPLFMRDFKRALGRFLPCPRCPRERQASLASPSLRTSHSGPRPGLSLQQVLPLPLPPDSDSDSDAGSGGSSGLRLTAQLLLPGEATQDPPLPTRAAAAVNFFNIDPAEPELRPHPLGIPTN

[17] = 1.0E-06 M, read-out: % Inhibition 2nd
[18] = 1.0E-06 M, read-out: % Inhibition Mean

Q: How did the inhibition at 1 µM ([1]; read-out: % Inhibition 1st) turn out when `Cn1c(=O)n(CCCO)c(=O)c2c1nc(Oc1cccc(Cl)c1)n2Cc1ccc(Cl)cc1` [HC-070] was run?
A: 7.9%

Q: And the inhibition at 1 µM ([1]; read-out: % Inhibition 2nd)?
A: -1%

Q: What about the inhibition at 1 µM ([1]; read-out: % Inhibition Mean) of the same molecule?
A: 3.5%

Q: With `Cn1c(=O)n(CCCO)c(=O)c2c1nc(Oc1cccc(OC(F)(F)F)c1)n2Cc1ccc(Cl)cc1` [HC-608] as the molecule, how does the IC50 [2] read?
A: 32.5 ± 1.8 nM

Q: And the inhibition at 1 µM ([3]; read-out: % Inhibition 1st)?
A: -14.9%

Q: What about the inhibition at 1 µM ([3]; read-out: % Inhibition 2nd) of the same molecule?
A: -3.7%

Q: What about the inhibition at 1 µM ([3]; read-out: % Inhibition Mean) of the same molecule?
A: -9.3%

Q: And the inhibition at 1 µM ([4]; read-out: % Inhibition 1st)?
A: 16.6%

Q: What about the inhibition at 1 µM ([4]; read-out: % Inhibition 2nd) of the same molecule?
A: 25.1%

Q: What about the inhibition at 1 µM ([4]; read-out: % Inhibition Mean) of the same molecule?
A: 20.9%

Q: And the inhibition at 1 µM [5, 17]?
A: -0.1%

Q: And the inhibition at 1 µM [5, 18]?
A: 12.7%

Q: And the inhibition at 1 µM ([5]; read-out: % Inhibition 1st)?
A: 25.5%

Q: What about the inhibition at 1 µM ([6]; read-out: % Inhibition 1st) of the same molecule?
A: 1.7%

Q: And the inhibition at 1 µM ([6]; read-out: % Inhibition 2nd)?
A: 3.1%

Q: What about the inhibition at 1 µM ([6]; read-out: % Inhibition Mean) of the same molecule?
A: 2.4%

Q: And the inhibition at 1 µM [7, 17]?
A: -0.8%

Q: What about the inhibition at 1 µM [7, 18] of the same molecule?
A: -13.4%

Q: And the inhibition at 1 µM ([7]; read-out: % Inhibition 1st)?
A: -25.9%

Q: What about the inhibition at 1 µM ([8]; 1.0E-06 M, read-out: % Inhibition 1st) of the same molecule?
A: -25.4%

Q: What about the inhibition at 1 µM [8, 17] of the same molecule?
A: -16.2%

Q: And the inhibition at 1 µM ([8]; read-out: % Inhibition Mean)?
A: -20.8%

Q: What about the inhibition at 1 µM ([9]; read-out: % Inhibition 1st) of the same molecule?
A: -9.9%

Q: What about the inhibition at 1 µM ([9]; read-out: % Inhibition 2nd) of the same molecule?
A: 12.5%

Q: And the inhibition at 1 µM ([9]; read-out: % Inhibition Mean)?
A: 1.3%

Q: And the “% Inhibition 1st” value [10]?
A: 2.3%

Q: And the “% Inhibition 2nd” value [10]?
A: 14.5%

Q: And the “% Inhibition Mean” value [10]?
A: 8.4%

Q: What about the inhibition at 1 µM ([11]; read-out: % Inhibition 1st) of the same molecule?
A: 0%

Q: What about the inhibition at 1 µM ([11]; read-out: % Inhibition 2nd) of the same molecule?
A: 6%

Q: And the inhibition at 1 µM ([11]; read-out: % Inhibition Mean)?
A: 3%

Q: What about the “% Inhibition 2nd” value [12] of the same molecule?
A: -18.4%

Q: And the “% Inhibition Mean” value [12]?
A: -15.7%

Q: And the inhibition at 1 µM ([13]; read-out: % Inhibition 1st)?
A: -9%

Q: And the inhibition at 1 µM ([13]; read-out: % Inhibition 2nd)?
A: -7.8%

Q: And the inhibition at 1 µM ([13]; read-out: % Inhibition Mean)?
A: -8.4%

Q: And the inhibition at 1 µM ([14]; read-out: % Inhibition 1st)?
A: -8.1%

Q: What about the inhibition at 1 µM ([14]; read-out: % Inhibition 2nd) of the same molecule?
A: 1.1%

Q: And the inhibition at 1 µM ([14]; read-out: % Inhibition Mean)?
A: -3.5%

Q: And the inhibition at 1 µM ([15]; read-out: % Inhibition 1st)?
A: 0.1%

Q: What about the inhibition at 1 µM ([15]; read-out: % Inhibition 2nd) of the same molecule?
A: -6.8%

Q: What about the inhibition at 1 µM ([15]; read-out: % Inhibition Mean) of the same molecule?
A: -3.3%

Q: And the inhibition at 1 µM ([16]; read-out: % Inhibition 1st)?
A: -5.1%

Q: And the inhibition at 1 µM ([16]; read-out: % Inhibition 2nd)?
A: 7.3%

Q: And the inhibition at 1 µM ([16]; read-out: % Inhibition Mean)?
A: 1.1%
